Test results as given in US20250353891A1 (MEDIMMUNE LIMITED, priority 2022, published 2025).
pEC50: −log10 of the molar value. Starred links: 1 amine or outer side, 2 acyl side, 3 side chain; linkers in the order of their positions; H or OH if unused. Non-standard residues stand in square brackets, D forms with d. Residues, ends and D or L forms follow the SMILES beside them. Groups on a side chain read outwards from the residue. *: point of attachment. C18 diacid = O=C(O)CCCCCCCCCCCCCCCCC(=O)*; γGlu = O=C(O)[C@H](CCC(=O)[*:2])N[*:1]; αMeF = C[C@](N)(Cc1ccccc1)C(=O)O; AEEA = NCCOCCOCC(=O)O; Aib = CC(C)(N)C(=O)O

How the values were obtained:
[1] = molecular target: human GLP-1 receptor (hGLP-1R) (Homo sapiens, UniProt P43220); assay: cAMP production (HTRF) in CHO cells expressing hGLP-1R; format: cell-based; parameters: expressed in transfected cells; settings: for pEC50: Table 6, peptides modified at position 17, cAMP in CHO hGLP-1R cells, geometric mean, read-out: hGLP-1R EC50; for % Relative Potency Ratio: Table 6, % GLP-1R activity relative to GLP-1 / % GlucR activity relative to glucagon
Method in brief: (§1)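 Cells were resuspended in assay buffer at batch-optimized density, typically 1×10^5 cells/mL for hGLP-1R and 2×10^5 cells/mL for hGCGR. After 30 min incubation at room temperature with compound, cAMP was measured by two-step HTRF. EC50 values came from 4-parameter logistic fits of % Delta F.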

[2] = molecular target: human glucagon receptor (hGCGR) (Homo sapiens, UniProt P47871); assay: cAMP production (HTRF) in CHO cells expressing hGCGR; format: cell-based; parameters: expressed in transfected cells; settings: Table 6, peptides modified at position 17; cAMP in CHO hGCGR cells; geometric mean; read-out: hGluc-R EC50
Method in brief: as §1

Chain of human GLP-1 receptor (hGLP-1R) (P43220 24-463): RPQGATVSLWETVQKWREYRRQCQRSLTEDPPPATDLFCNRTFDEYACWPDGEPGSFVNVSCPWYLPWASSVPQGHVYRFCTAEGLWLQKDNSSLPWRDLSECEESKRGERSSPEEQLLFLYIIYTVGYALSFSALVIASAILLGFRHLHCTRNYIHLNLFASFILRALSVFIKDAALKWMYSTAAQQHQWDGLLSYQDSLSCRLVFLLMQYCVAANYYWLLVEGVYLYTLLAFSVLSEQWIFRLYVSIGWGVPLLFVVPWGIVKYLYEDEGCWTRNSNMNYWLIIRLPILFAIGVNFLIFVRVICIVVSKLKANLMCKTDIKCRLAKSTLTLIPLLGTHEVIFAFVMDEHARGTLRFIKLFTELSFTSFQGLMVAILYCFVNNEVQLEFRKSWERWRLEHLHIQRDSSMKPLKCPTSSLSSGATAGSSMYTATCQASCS
Chain of human glucagon receptor (hGCGR) (P47871 26-477): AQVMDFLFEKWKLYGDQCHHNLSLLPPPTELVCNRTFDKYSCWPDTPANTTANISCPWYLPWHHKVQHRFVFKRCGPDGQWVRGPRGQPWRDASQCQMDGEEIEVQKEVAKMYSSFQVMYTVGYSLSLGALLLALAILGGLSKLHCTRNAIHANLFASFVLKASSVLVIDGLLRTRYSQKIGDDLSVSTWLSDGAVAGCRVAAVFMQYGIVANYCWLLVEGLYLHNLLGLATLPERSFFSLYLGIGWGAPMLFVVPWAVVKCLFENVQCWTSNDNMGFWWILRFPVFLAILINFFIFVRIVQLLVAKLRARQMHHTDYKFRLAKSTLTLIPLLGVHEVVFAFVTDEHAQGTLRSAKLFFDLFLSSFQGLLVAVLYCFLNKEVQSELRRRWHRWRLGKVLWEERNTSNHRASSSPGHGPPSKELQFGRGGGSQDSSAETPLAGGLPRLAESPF

Structure (SMILES)	pEC50 [1]	% Relative Potency Ratio [1]	pEC50 [2]
CC(C)C[C@H](NC(=O)[C@H](Cc1c[nH]c2ccccc12)NC(=O)[C@H](CCCNC(=N)N)NC(=O)[C@@H](NC(=O)[C@H](Cc1ccccc1)NC(=O)[C@H](CC(=O)O)NC(=O)[C@H](CCC(N)=O)NC(=O)[C@H](C)NC(=O)[C@H](CCCNC(=N)N)NC(=O)[C@H](CCCCNC(=O)COCCOCCNC(=O)COCCOCCNC(=O)CC[C@H](NC(=O)CCCCCCCCCCCCCCCCC(=O)O)C(=O)O)NC(=O)[C@H](CO)NC(=O)[C@H](CC(=O)O)NC(=O)[C@H](CC(C)C)NC(=O)[C@](C)(Cc1ccccc1)NC(=O)[C@H](CCCCN)NC(=O)[C@H](CO)NC(=O)[C@@H](NC(=O)[C@H](CC(=O)O)NC(=O)[C@H](CO)NC(=O)[C@@H](NC(=O)[C@H](Cc1ccccc1)NC(=O)[C@@H](NC(=O)CNC(=O)[C@H](CCC(N)=O)NC(=O)C(C)(C)NC(=O)[C@@H](N)Cc1c[nH]cn1)[C@@H](C)O)[C@@H](C)O)C(C)C)C(C)C)C(=O)N[C@@H](CC(C)C)C(=O)NC(C)(C)C(=O)N[C@H](C(=O)N[C@@H](C)C(=O)O)[C@@H](C)O [Peptide 176] (H-H[Aib]QGTFTSDVSK[αMeF]LDSK([AEEA-AEEA-γGlu-C18 diacid])RAQDFVRWLL[Aib]TA-OH; N-terminus assumed)	10.22	15.9	9.32
CC(C)C[C@H](NC(=O)[C@H](CC(C)C)NC(=O)[C@H](Cc1c[nH]c2ccccc12)NC(=O)[C@H](CCCNC(=N)N)NC(=O)[C@@H](NC(=O)[C@H](Cc1ccccc1)NC(=O)[C@H](CC(=O)O)NC(=O)[C@H](CCC(N)=O)NC(=O)[C@H](C)NC(=O)[C@H](CCCNC(=N)N)NC(=O)[C@H](CCCCNC(=O)COCCOCCNC(=O)COCCOCCNC(=O)CC[C@H](NC(=O)CCCCCCCCCCCCCCCCC(=O)O)C(=O)O)NC(=O)[C@H](CO)NC(=O)[C@H](CC(=O)O)NC(=O)[C@H](CC(C)C)NC(=O)[C@](C)(Cc1ccccc1)NC(=O)[C@H](CCCCN)NC(=O)[C@H](CO)NC(=O)[C@@H](NC(=O)[C@H](CC(=O)O)NC(=O)[C@H](CO)NC(=O)[C@@H](NC(=O)[C@H](Cc1ccccc1)NC(=O)[C@@H](NC(=O)CNC(=O)[C@H](CCC(N)=O)NC(=O)C(C)(C)NC(=O)[C@@H](N)Cc1c[nH]cn1)[C@@H](C)O)[C@@H](C)O)C(C)C)C(C)C)C(=O)N[C@@H](C)C(=O)NC(C)(C)C(=O)NCC(=O)O [Peptide 180] (H-H[Aib]QGTFTSDVSK[αMeF]LDSK([AEEA-AEEA-γGlu-C18 diacid])RAQDFVRWLLA[Aib]G-OH; N-terminus assumed)	10.61	5.8	10.14
CC(C)C[C@H](NC(=O)[C@H](Cc1c[nH]c2ccccc12)NC(=O)[C@H](CCCNC(=N)N)NC(=O)[C@@H](NC(=O)[C@H](Cc1ccccc1)NC(=O)[C@H](CC(=O)O)NC(=O)[C@H](CCC(N)=O)NC(=O)[C@H](C)NC(=O)[C@H](CCCNC(=N)N)NC(=O)[C@H](CCCCNC(=O)COCCOCCNC(=O)COCCOCCNC(=O)CCCCCCCCCCCCCCCCC(=O)O)NC(=O)[C@H](CO)NC(=O)[C@H](CC(=O)O)NC(=O)[C@H](CC(C)C)NC(=O)[C@](C)(Cc1ccccc1)NC(=O)[C@H](CCCCN)NC(=O)[C@H](CO)NC(=O)[C@@H](NC(=O)[C@H](CC(=O)O)NC(=O)[C@H](CO)NC(=O)[C@@H](NC(=O)[C@H](Cc1ccccc1)NC(=O)[C@@H](NC(=O)CNC(=O)[C@H](CCC(N)=O)NC(=O)C(C)(C)NC(=O)[C@@H](N)Cc1c[nH]cn1)[C@@H](C)O)[C@@H](C)O)C(C)C)C(C)C)C(=O)N[C@@H](CC(C)C)C(=O)N[C@@H](CCC(=O)O)C(=O)NC(C)(C)C(=O)NCC(=O)O [Peptide 181] (H-H[Aib]QGTFTSDVSK[αMeF]LDSK([AEEA-AEEA-C18 diacid])RAQDFVRWLLE[Aib]G-OH; N-terminus assumed)	10.25	1.2	10.48
CC(C)C[C@H](NC(=O)[C@H](CC(C)C)NC(=O)[C@H](Cc1c[nH]c2ccccc12)NC(=O)[C@H](CCCNC(=N)N)NC(=O)[C@@H](NC(=O)[C@H](Cc1ccccc1)NC(=O)[C@H](CC(=O)O)NC(=O)[C@H](CCC(N)=O)NC(=O)[C@H](C)NC(=O)[C@H](CCCNC(=N)N)NC(=O)[C@H](CCCCNC(=O)COCCOCCNC(=O)COCCOCCNC(=O)CCCCCCCCCCCCCCCCC(=O)O)NC(=O)[C@H](CCCCN)NC(=O)[C@H](CC(=O)O)NC(=O)[C@H](CC(C)C)NC(=O)[C@](C)(Cc1ccccc1)NC(=O)[C@H](CCCCN)NC(=O)[C@H](CO)NC(=O)[C@@H](NC(=O)[C@H](CC(=O)O)NC(=O)[C@H](CO)NC(=O)[C@@H](NC(=O)[C@H](Cc1ccccc1)NC(=O)[C@@H](NC(=O)CNC(=O)[C@H](CCC(N)=O)NC(=O)C(C)(C)NC(=O)[C@@H](N)Cc1c[nH]cn1)[C@@H](C)O)[C@@H](C)O)C(C)C)C(C)C)C(=O)N[C@@H](C)C(=O)NC(C)(C)C(=O)N[C@@H](CCCCN)C(=O)O [Peptide 184] (H-H[Aib]QGTFTSDVSK[αMeF]LDKK([AEEA-AEEA-C18 diacid])RAQDFVRWLLA[Aib]K-OH; N-terminus assumed)	10.66	2.7	10.53

The remaining lines, values ahead:

pEC50 [1]	% Relative Potency Ratio [1]	pEC50 [2]	Structure (SMILES)
10.29	4.0	9.98	CC(C)C[C@H](NC(=O)[C@H](Cc1c[nH]c2ccccc12)NC(=O)[C@H](CCCNC(=N)N)NC(=O)[C@@H](NC(=O)[C@H](Cc1ccccc1)NC(=O)[C@H](CC(=O)O)NC(=O)[C@H](CCC(N)=O)NC(=O)[C@H](C)NC(=O)[C@H](CCCNC(=N)N)NC(=O)[C@H](CCCCNC(=O)COCCOCCNC(=O)COCCOCCNC(=O)CC[C@H](NC(=O)CCCCCCCCCCCCCCCCC(=O)O)C(=O)O)NC(=O)[C@H](CCCCN)NC(=O)[C@H](CC(=O)O)NC(=O)[C@H](CC(C)C)NC(=O)[C@](C)(Cc1ccccc1)NC(=O)[C@H](CCCCN)NC(=O)[C@H](CO)NC(=O)[C@@H](NC(=O)[C@H](CC(=O)O)NC(=O)[C@H](CO)NC(=O)[C@@H](NC(=O)[C@H](Cc1ccccc1)NC(=O)[C@@H](NC(=O)CNC(=O)[C@H](CCC(N)=O)NC(=O)C(C)(C)NC(=O)[C@@H](N)Cc1c[nH]cn1)[C@@H](C)O)[C@@H](C)O)C(C)C)C(C)C)C(=O)N[C@@H](CC(C)C)C(=O)NC(C)(C)C(=O)N[C@H](C(=O)N[C@@H](CCC(=O)O)C(=O)O)[C@@H](C)O [Peptide 178]
9.88	3.1	9.69	CC(C)C[C@H](NC(=O)[C@H](CC(C)C)NC(=O)[C@H](Cc1c[nH]c2ccccc12)NC(=O)[C@H](CCCNC(=N)N)NC(=O)[C@@H](NC(=O)[C@H](Cc1ccccc1)NC(=O)[C@H](CC(=O)O)NC(=O)[C@H](CCC(N)=O)NC(=O)[C@H](C)NC(=O)[C@H](CCCNC(=N)N)NC(=O)[C@H](CCCCNC(=O)COCCOCCNC(=O)COCCOCCNC(=O)CC[C@H](NC(=O)CCCCCCCCCCCCCCCCC(=O)O)C(=O)O)NC(=O)[C@H](CO)NC(=O)[C@H](CC(=O)O)NC(=O)[C@H](CC(C)C)NC(=O)[C@](C)(Cc1ccccc1)NC(=O)[C@H](CCCCN)NC(=O)[C@H](CO)NC(=O)[C@@H](NC(=O)[C@H](CC(=O)O)NC(=O)[C@H](CO)NC(=O)[C@@H](NC(=O)[C@H](Cc1ccccc1)NC(=O)[C@@H](NC(=O)CNC(=O)[C@H](CCC(N)=O)NC(=O)C(C)(C)NC(=O)[C@@H](N)Cc1c[nH]cn1)[C@@H](C)O)[C@@H](C)O)C(C)C)C(C)C)C(=O)N[C@@H](CCC(=O)O)C(=O)N[C@@H](C)C(=O)NCC(=O)O [Peptide 179] (H-H[Aib]QGTFTSDVSK[αMeF]LDSK([AEEA-AEEA-γGlu-C18 diacid])RAQDFVRWLLEAG-OH; N-terminus assumed)
10.54	1.5	10.65	CC(C)C[C@H](NC(=O)[C@H](Cc1c[nH]c2ccccc12)NC(=O)[C@H](CCCNC(=N)N)NC(=O)[C@@H](NC(=O)[C@H](Cc1ccccc1)NC(=O)[C@H](CC(=O)O)NC(=O)[C@H](CCC(N)=O)NC(=O)[C@H](C)NC(=O)[C@H](CCCNC(=N)N)NC(=O)[C@H](CCCCNC(=O)COCCOCCNC(=O)COCCOCCNC(=O)CC[C@H](NC(=O)CCCCCCCCCCCCCCCCC(=O)O)C(=O)O)NC(=O)[C@H](CCCCN)NC(=O)[C@H](CC(=O)O)NC(=O)[C@H](CC(C)C)NC(=O)[C@](C)(Cc1ccccc1)NC(=O)[C@H](CCCCN)NC(=O)[C@H](CO)NC(=O)[C@@H](NC(=O)[C@H](CC(=O)O)NC(=O)[C@H](CO)NC(=O)[C@@H](NC(=O)[C@H](Cc1ccccc1)NC(=O)[C@@H](NC(=O)CNC(=O)[C@H](CCC(N)=O)NC(=O)C(C)(C)NC(=O)[C@@H](N)Cc1c[nH]cn1)[C@@H](C)O)[C@@H](C)O)C(C)C)C(C)C)C(=O)N[C@@H](CC(C)C)C(=O)N[C@@H](CCC(=O)O)C(=O)NC(C)(C)C(=O)NCC(=O)O [Peptide 182] (H-H[Aib]QGTFTSDVSK[αMeF]LDKK([AEEA-AEEA-γGlu-C18 diacid])RAQDFVRWLLE[Aib]G-OH)
10.62	6.8	10.09	CC(C)C[C@H](NC(=O)[C@H](Cc1c[nH]c2ccccc12)NC(=O)[C@H](CCCNC(=N)N)NC(=O)[C@@H](NC(=O)[C@H](Cc1ccccc1)NC(=O)[C@H](CC(=O)O)NC(=O)[C@H](CCC(N)=O)NC(=O)[C@H](C)NC(=O)[C@H](CCCNC(=N)N)NC(=O)[C@H](CCCCNC(=O)COCCOCCNC(=O)COCCOCCNC(=O)CC[C@H](NC(=O)CCCCCCCCCCCCCCCCC(=O)O)C(=O)O)NC(=O)[C@H](CO)NC(=O)[C@H](CC(=O)O)NC(=O)[C@H](CC(C)C)NC(=O)[C@](C)(Cc1ccccc1)NC(=O)[C@H](CCCCN)NC(=O)[C@H](CO)NC(=O)[C@@H](NC(=O)[C@H](CC(=O)O)NC(=O)[C@H](CO)NC(=O)[C@@H](NC(=O)[C@H](Cc1ccccc1)NC(=O)[C@@H](NC(=O)CNC(=O)[C@H](CCC(N)=O)NC(=O)C(C)(C)NC(=O)[C@@H](N)Cc1c[nH]cn1)[C@@H](C)O)[C@@H](C)O)C(C)C)C(C)C)C(=O)N[C@@H](CC(C)C)C(=O)N[C@@H](CCC(=O)O)C(=O)NC(C)(C)C(=O)N[C@@H](CCCCN)C(=O)O [Peptide 183]
